Tests used:
DHRS13_C174 = biological target: T1, DHRS13_C174 (Homo sapiens, UniProt Q6UX07); test: IA-DTB cysteine engagement; assay type: binding; details: 22Rv1 cells, 20 μM probe, 1 h, relative to DMSO
T1 construct: endogenous in cells; host or cells: 22Rv1
T1 sequence (Q6UX07 26-377): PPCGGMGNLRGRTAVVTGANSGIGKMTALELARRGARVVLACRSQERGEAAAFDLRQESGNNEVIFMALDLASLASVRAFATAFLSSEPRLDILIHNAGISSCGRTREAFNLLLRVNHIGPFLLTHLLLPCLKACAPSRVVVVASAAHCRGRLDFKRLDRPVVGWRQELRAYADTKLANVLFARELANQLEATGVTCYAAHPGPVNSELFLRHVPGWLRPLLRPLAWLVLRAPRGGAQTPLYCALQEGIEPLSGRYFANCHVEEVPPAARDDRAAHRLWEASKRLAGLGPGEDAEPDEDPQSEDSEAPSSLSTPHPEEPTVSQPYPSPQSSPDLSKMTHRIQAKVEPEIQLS
How it was run: (§1)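 Competitive chemoproteomics: residual cysteine reactivity toward IA-DTB in lysates from probe-treated cells was quantified by TMT reporter ions relative to DMSO-treated controls. Replicates sharing cell line, probe, concentration and duration were averaged.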

STRBP_C142 = biological target: T2, STRBP_C142 (Homo sapiens, UniProt Q96SI9); test: IA-DTB cysteine engagement; assay type: binding; details: 22Rv1 cells, 20 μM probe, 1 h, relative to DMSO
T2 construct: endogenous in cells; host or cells: 22Rv1
T2 sequence (Q96SI9 1-672): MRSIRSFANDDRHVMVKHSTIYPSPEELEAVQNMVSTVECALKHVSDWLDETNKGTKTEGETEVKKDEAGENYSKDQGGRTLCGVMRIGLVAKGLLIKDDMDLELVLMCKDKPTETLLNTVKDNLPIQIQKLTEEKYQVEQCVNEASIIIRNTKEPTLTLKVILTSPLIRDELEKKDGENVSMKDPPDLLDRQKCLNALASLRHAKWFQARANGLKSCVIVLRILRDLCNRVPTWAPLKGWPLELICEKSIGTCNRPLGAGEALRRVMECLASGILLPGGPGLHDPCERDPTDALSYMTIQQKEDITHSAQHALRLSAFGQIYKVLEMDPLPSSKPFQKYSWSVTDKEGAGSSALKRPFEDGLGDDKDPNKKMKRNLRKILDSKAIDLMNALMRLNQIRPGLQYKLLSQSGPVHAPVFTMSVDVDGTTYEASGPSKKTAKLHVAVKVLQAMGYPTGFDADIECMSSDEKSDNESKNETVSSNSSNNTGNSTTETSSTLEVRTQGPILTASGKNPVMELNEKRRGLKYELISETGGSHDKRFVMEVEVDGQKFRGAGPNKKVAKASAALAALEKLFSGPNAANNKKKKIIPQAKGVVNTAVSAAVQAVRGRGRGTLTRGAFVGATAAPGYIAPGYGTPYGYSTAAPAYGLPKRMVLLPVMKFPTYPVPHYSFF
How it was run: as §1

C=CC(=O)N1C[C@H](c2ccc(Br)cc2)[C@H]1C(=O)Nc1cccc2cccnc12 [MY-3A, (2S,3S)-1-acryloyl-3-(4-bromophenyl)-N-(quinolin-8-yl)azetidine-2-carboxamide]
% engagement DHRS13_C174 (DHRS13_C174): 42% | % engagement STRBP_C142 (STRBP_C142): 16.25%

C=CC(=O)N1C[C@H](c2ccc(Br)cc2)[C@@H]1C(=O)Nc1cccc2cccnc12 [MY-1B, (2R,3S)-1-acryloyl-3-(4-bromophenyl)-N-(quinolin-8-yl)azetidine-2-carboxamide]
% engagement DHRS13_C174 (DHRS13_C174): 69.75% | % engagement STRBP_C142 (STRBP_C142): 8.5%

C=CC(=O)N1C[C@H](c2ccc(Br)cc2)[C@H]1C(=O)Nc1cccc2cccnc12 [MY-3B, (2S,3S)-1-acryloyl-3-(4-bromophenyl)-N-(quinolin-8-yl)azetidine-2-carboxamide]
% engagement DHRS13_C174 (DHRS13_C174): 61.75% | % engagement STRBP_C142 (STRBP_C142): 7.75%

C=CC(=O)N1C[C@@H](c2ccc(Br)cc2)[C@H]1C(=O)Nc1cccc2cccnc12 [MY-1A, (2S,3R)-1-acryloyl-3-(4-bromophenyl)-N-(quinolin-8-yl)azetidine-2-carboxamide]
% engagement DHRS13_C174 (DHRS13_C174): 60.25% | % engagement STRBP_C142 (STRBP_C142): 88.25%
